Assay results published in PMC7822874, “Chemoprotective antimalarials identified through quantitative high-throughput screening of Plasmodium blood and liver stage parasites” (Scientific Reports, 2021).
Like-named read-outs stand apart in the source and are kept apart here.

Tested on: Plasmodium falciparum Dd2 asexual blood stage parasites
Test: microbe, parasite or virus in culture
Set-up: species or system Plasmodium falciparum Dd2 in human erythrocytes; single determination (one 11-point concentration-response curve)
Conditions: Plasmodium falciparum, DD2, Erythrocyte, 72 h

Row | SMILES | AC50 (read-out: AC50) | AC50
1 | COc1ccc(-c2n[nH]c3ncc(-c4cccnc4)nc23)cc1F [NCGC00419143-01] | 3.85 µM | –
2 | O=C(Nc1ccccc1C(F)(F)F)c1cc(-c2ccccc2O)on1 [MLS000087293-01] | 2.99 µM | –
3 | Cn1cc(CN2CCCC(COc3ccccc3C(=O)N3CCCC3)C2)c2ccccc21 (centres unmarked) [NCGC00427140-01] | 9.44 µM | –
4 | Cc1ccccc1NC(=O)Nc1ccc2nc(N3CCN(C)CC3)cc(C)c2c1 [NCGC00126513-01] | 1.5 µM | –
5 | CCC(CC)c1cc([C@H]2CN3CC[C@H]2C[C@@H]3CNC(=O)NCc2ccccc2)nc(-c2ccncc2)n1 [NCGC00400244-01] | 4.22 µM | –
6 | CCCC(O)c1nc2ccccc2n1CCCCOc1ccc(OC)cc1 (centres unmarked) [NCGC00119455-01] | 15 µM | –
7 | COc1cccc(CN2C(=O)OC3(CCN(Cc4c[nH]c5ccccc45)CC3)C2(C)c2cccnc2)c1 (centres unmarked) [NCGC00415482-01] | 8.41 µM | –
8 | CCc1ccc(CN2CCN(Cc3cc(Br)ccc3O)CC2)cc1 [MLS000673664-01] | 2.11 µM | –
9 | CCOc1ccc(-n2c(SCC(N)=O)nc3sc4c(c3c2=O)CCN(C)C4)cc1 [MLS000332254-01] | 15 µM | –
10 | CC(C)CCNC(=O)c1cc(C(=O)c2cc(F)ccc2O)cn(CCC(C)C)c1=O [MLS000761418-01] | 2.11 µM | –
11 | COc1ccc(CCNC(=O)CCc2c(C)nc3c(c(C)nn3-c3ccc(C)c(C)c3)c2C)cc1OC [NCGC00110173-01] | 0.668 µM | –
12 | O=C1CC(c2ccccc2)N(Cc2ccncc2)CCCN(C(=O)Nc2ccccc2F)CCN1 (centres unmarked) [NCGC00467191-01] | 1.68 µM | –
13 | CC1Cn2c(nnc2-c2cc3ccccc3cc2O)S1 (centres unmarked) [MLS000066435-01] | 4.73 µM | –
14 | Cn1nc(C2CCCCC2)cc1[C@H]1CN2CC[C@H]1C[C@@H]2CNC(=O)COc1ccccc1 [NCGC00399666-01] | 15 µM | –
15 | COc1ccc(C2c3ccc(O)cc3Oc3ncn4nc(-c5ccncc5)nc4c32)cc1OC (centres unmarked) [MLS000778948-01] | 15 µM | –
16 | COCC1CN(C)CC12CCN([S+](=O)([O-])c1ccc(F)c(Cl)c1)CC2 (centres unmarked) [NCGC00461939-01] | 13.3 µM | –
17 | COc1ccc(C(O)(CCC(C)C)C(CN2CCOCC2)c2ccccc2)cc1 (centres unmarked) [MLS001198958-01] | 5.31 µM | –
18 | COc1ccc2c(c1)C=C([C@@H]1C[C@H]3CN(c4ccccc4)C(=O)[C@]34CCCN14)CO2 [MLS000734809-01] | 0.944 µM | –
19 | CCCCn1c(N)c(N(CC(C)C)C(=O)c2cc(-c3ccc(OC)c(OC)c3)nc3ccccc23)c(=O)[nH]c1=O [MLS001157051-01] | 11.9 µM | –
20 | CCOC(=O)c1cnn(-c2ccc(C(=O)Nc3ccc(C(C)=O)cc3)cc2)c1N [NCGC00137680-01] | 4.73 µM | –
21 | COCC1CN(Cc2cccc(C(F)(F)F)c2)CC12CCNCC2 (centres unmarked) [NCGC00461834-01] | 7.5 µM | –
22 | CCn1c(=O)c2cc(C(=O)N(CC(C)C)CC(C)C)sc2c2ccccc21 [NCGC00110427-01] | 10.6 µM | –
23 | O=C(Nc1ccc(C(=O)OC[C@@H]2CCCN3CCCC[C@H]23)cc1)c1cccc(Br)c1 [MLS000700112-01] | 6.68 µM | –
24 | COc1ccc(S(=O)(=O)N2CCN(/C(S)=N/C3CCCCC3)CC2)cc1 [MLS000690529-01] | 6.68 µM | –
25 | CCOC(=O)C1CCN(c2cc(=O)n(-c3ccccc3Cl)c(=O)[nH]2)CC1 [MLS000045867-01] | 8.41 µM | –
26 | CCC[S+](=O)([O-])c1nc([S+](=O)([O-])c2ccc(C)cc2)c(NCCCOC(C)C)s1 [NCGC00113582-01] | 2.11 µM | –
27 | CCc1cc(=O)oc2cc(C)cc(OCC(=O)C(C)(C)C)c12 [MLS000666007-01] | 11.9 µM | –

Row | SMILES | AC50 (read-out: AC50) | AC50
28 | Cc1ccc2nc(Cl)c3cc(C(=O)NCCCN4CCC(C)CC4)sc3c2c1 [NCGC00110841-01] | 6.68 µM | –
29 | COc1ccc(C(=O)N2CCC3(CC2)OC(=O)N(Cc2ccc(O)cc2)C3(C)c2ccccc2)cn1 (centres unmarked) [NCGC00415507-01] | 6.68 µM | –
30 | CC(C)(C)c1ccc(C(=O)Nc2ccc(C(O)[C@H]3COCC(=O)N3Cc3ccccn3)cc2)cc1 (some centres unmarked) [NCGC00392498-01] | 5.31 µM | –
31 | COc1ccccc1N1CCN(Cc2cc(C)c(C)cc2O)CC1 [MLS000571139-01] | 0.376 µM | –
32 | CC(=O)Nc1cc(-c2ccccc2)ccc1O [MLS000030849-01] | 4.73 µM | –
33 | Fc1ccc(Oc2nc(-c3ccccn3)nc3ccccc23)cc1 [MLS000769507-01] | 13.3 µM | –
34 | Cc1cc(NC(=O)CSc2ccc3nnc(-c4cccc(F)c4)n3n2)no1 [MLS000093339-01] | 5.96 µM | –
35 | CCCCCNc1nc2c(-c3ccccc3)nnn2c2ccccc12 [NCGC00111529-01] | 11.9 µM | –
36 | Cc1cc(C(F)(F)F)nn1CC(=O)NCCc1ncc(C)n1CC1CC1 [NCGC00469801-01] | 10.6 µM | –
37 | CCC(=O)C1=C(c2cccc([N+](=O)[O-])c2)N(C(=O)CC)n2c(nnc2C2CCCCC2)S1 [NCGC00137266-01] | 1.88 µM | –
38 | Cc1noc(C)c1-c1cc2c(cc(C)n2CCN(C)C)c(-c2cccc(O)c2)n1 [NCGC00417178-01] | 17.2 µM | –
39 | O=C1Nc2ccccc2C12Nc1ccccc1-c1nc3ccccc3n12 (centres unmarked) [MLS000051512-01] | 6.68 µM | –
40 | COc1cc(NC(=O)Cn2c(=O)n(CC3CCC(C(=O)NCCc4ccccc4)CC3)c(=O)c3ccccc32)cc(OC)c1 (centres unmarked) [NCGC00106543-01] | 5.96 µM | –
41 | O=C(NC1CC1)C1CCN(S(=O)(=O)c2ccc(Cl)cc2)CC1 [MLS001220436-01] | 13.3 µM | –
42 | CN1CCOc2c(C(=O)NCc3cccnc3)cc(-c3cccc4[nH]ccc34)cc21 [NCGC00416962-01] | 8.63 µM | –
43 | CCOC(=O)c1ccc2c(c1)N(CC(=O)N(C)c1ccccc1)C(=O)c1ccccc1S2 [NCGC00132027-01] | 10.6 µM | –
44 | COc1cc(NC(=O)CSc2nc(-c3ccccc3)no2)cc(OC)c1 [NCGC00127876-01] | 2.37 µM | –
45 | O=C(Nc1ccncc1)c1cc(-c2cccc(Br)c2)nc2ccccc12 [MLS001159350-01] | 13.3 µM | –
46 | Cc1ccc(C)c(OCCn2cc(C(=O)c3ccco3)c3ccccc32)c1 [NCGC00101856-01] | – | 5.31 µM
47 | Cc1ccc([S+](=O)([O-])N2CCC(OC3CCN(Cc4ccccc4)CC3)CC2)cc1C [NCGC00444948-01] | 15 µM | –
48 | COc1ccccc1CN1CCOCC2(C1)CN([S+](=O)([O-])c1ccccc1)C2 [NCGC00419002-01] | 12.2 µM | –
49 | CC(C)c1ccccc1NC(=O)Cn1cccc1-c1nc(-c2ccc(F)cc2)no1 [NCGC00445438-01] | 2.99 µM | –
50 | COc1cccc(NC(=O)c2ccc(-c3nnc4ccc(NC(=O)C5CCC5)cn34)cc2)c1 [NCGC00429881-01] | 3.76 µM | –
51 | CCOc1ccc(NC(=O)c2cnn3c2NC(c2cccc(OC)c2)=CC3c2ccccc2)cc1 (centres unmarked) [NCGC00121753-01] | 4.73 µM | –
52 | CN(Cc1ccc(-n2cccn2)cc1)CC1CCN(CCc2ccc(F)cc2)CC1 [NCGC00425928-01] | 10.6 µM | –
53 | c1ccc(Nc2cc3c(cn2)CN(Cc2ccsc2)CCN3)cc1 [NCGC00411091-01] | 13.7 µM | –
54 | Cc1ccccc1-n1c(=C(C#N)C(=O)Nc2ccccc2)sc(=Cc2ccco2)c1=O [MLS000081502-01] | 5.31 µM | –

Row | SMILES | AC50 (read-out: AC50) | AC50
55 | O=C(C1=C[C@H](c2csc3ccccc23)C[C@H](OCCCCO)O1)N1CCN(Cc2ccc3c(c2)OCO3)CC1 [MLS000834451-01] | 13.3 µM | –
56 | COc1ccc(CCN(C)C(=O)CC(c2cccc(F)c2)c2cn(C)c3ccccc23)cc1OC (centres unmarked) [NCGC00473446-01] | 8.41 µM | –
57 | NCCc1cccc(CN2CCCC(COc3ccccc3F)C2)c1 (centres unmarked) [NCGC00434821-01] | 2.66 µM | –
58 | COC(=O)c1cc(C(=O)c2ccc(Cl)cc2Cl)cn1C [MLS000546235-01] | 13.3 µM | –
59 | COc1ccc(C(O)(CCC(C)C)C(CN2CCOCC2)c2ccc(Cl)cc2)cc1 (centres unmarked) [MLS001200330-01] | 6.68 µM | –
60 | COc1cncc(CN2CCC3(CC2)OC(=O)N(Cc2ccc(O)cc2)C3(C)c2ccccc2)c1 (centres unmarked) [NCGC00415566-01] | 9.44 µM | –
61 | CCn1c(SCc2ccc(C#N)cc2)nnc1-c1ccc(S(=O)(=O)N2CCCCC2)cc1 [MLS000032588-01] | 6.68 µM | –
62 | O=C(Cn1c(=O)n(Cc2ccc(C(=O)NCc3ccc4c(c3)OCO4)cc2)c(=O)c2ccccc21)Nc1cccc(Cl)c1 [NCGC00106483-01] | 5.96 µM | –
63 | CC(C)(C)c1ccc(CN(Cc2ccccc2)C(c2ccccn2)c2nnnn2C(C)(C)C)cc1 (centres unmarked) [MLS000529130-01] | 4.73 µM | –
64 | O=C1C=C(c2cccc(CO)c2)C[C@@H](c2ccc(Cl)cc2)C1 [MLS002302575-01] | 3.76 µM | –
65 | Cc1ccc(NC(=O)Cn2c(=O)n(-c3ccc(C)cc3)c(=O)c3ccc(C(=O)NCc4ccccc4Cl)cc32)cc1 [NCGC00108700-01] | 5.31 µM | –
66 | COc1cccc(-c2cc(C(=O)Nc3cc(Cl)ccc3O)on2)c1 [NCGC00121773-01] | 4.73 µM | –
67 | CC(C)[S+](=O)([O-])N1CCC(N2CC(OCC3CC3)C23CCCCC3)CC1 (centres unmarked) [NCGC00463417-01] | 15 µM | –
68 | Cc1nnc2c(N3CCN(c4ccccc4)CC3)nc3ccc(C(=O)c4ccccc4)cc3n12 [NCGC00107547-01] | 0.841 µM | –
69 | C#C[C@H]1C[N@@]2CC[C@H]1C[C@@H]2CNCc1ccc(F)c(F)c1 [NCGC00399053-01] | 13.7 µM | –
70 | Cc1ccc(CN2CCCN(Cc3ccncc3)C(c3ccccc3)CC(=O)NCC2)s1 (centres unmarked) [NCGC00467183-01] | 2.66 µM | –
71 | COc1cc([N+](=O)[O-])ccc1NC(=O)Nc1nc2c(s1)CCCC2 [MLS000581295-01] | 6.68 µM | –
72 | Cn1cc(CN2CCCC(CO)(Cc3ccccc3)C2)cn1 (centres unmarked) [MLS000732297-01] | 5.96 µM | –
73 | COc1cc(Br)c(C2CC(=O)Nc3cc4c(cc32)OCCO4)cc1OC (centres unmarked) [NCGC00107079-01] | 2.37 µM | –
74 | Cc1ccc(-n2c(C3CCN(C(=O)COc4ccc(Cl)cc4)CC3)n[nH]c2=O)cc1 [NCGC00451295-01] | 10.6 µM | –
75 | CCC(=O)NC(N)=Nc1nc(C)c2cc(C)c(C)cc2n1 [MLS000768400-01] | 9.44 µM | –
76 | CC(=O)Nc1ccc(Nc2cc(C)nc(Nc3ccc(NC(C)=O)cc3)n2)cc1 [MLS001359830-01] | 3.35 µM | –
77 | C1CCC(CNc2c3c(nc4nnnn24)CCCC3)CC1 [MLS000034780-01] | 13.3 µM | –
78 | COc1cccc(NC(=O)c2sc3nc(C)c(C(=O)Nc4ccc(C)cc4C)c(-c4ccccc4Cl)c3c2N)c1 [NCGC00104946-01] | 2.66 µM | –
79 | CC(C)(C)n1nnnc1C(c1cccnc1)N(Cc1ccccc1)Cc1ccco1 (centres unmarked) [MLS000528003-01] | 5.31 µM | –
80 | COc1ccc(OC)c(S(=O)(=O)Nc2ccc(O)c3ccccc23)c1 [MLS001045548-01] | 8.41 µM | –
